Legend:
[1] = biological target: T1, XO type enzyme (xanthine oxidase) (Bos taurus, UniProt P80457); test: time-dependent inhibition of uric acid production from xanthine by XO (A295); assay type: biochemical, bovine; details: for 50% inhibition time of uric acid production / stop time of uric acid production: pH 8.5, 25 °C
T1 construct: Bovine milk was obtained from the animal farm of the Nippon Veterinary and Life Science University; from tissue; host or cells: bovine milk
Method: A295 indicates the concentration of uric acid yielded by XOR. […] Uric acid production was measured at 295 nm at 25 °C.
(§1) Bovine milk was obtained from the animal farm of the Nippon Veterinary and Life Science University. […] The dehydrogenase form of the enzyme (XDH) was obtained by reacting XO immediately upon purification with 5 mM DTT at pH 8.5, 25 °C for 1 h. XO and XDH assays were carried out at 25 °C under aerobic conditions. […] A total of 500 μM β-NAD^+ was added to the same reaction solution for XDH activity. Physiological conditions such as pH 7.4 (0.1 M potassium phosphate buffer (KPB), 0.2 mM EDTA) and the addition of 50 μM β-NADH were also used. The activity was measured by following 295 nm and 340 nm on a UV-1800 or UV1900i spectrophotometer. […] In addition, the enzyme reaction solution was quenched with perchloric acid and neutralized with K2CO3, with products analyzed using HPLC as described below. Spectrophotometric data were analyzed using UV-Probe software Ver. 2.70 or LabSolutions UV-Vis Ver. […] Kinetic parameters were determined from nonlinear curve fits of raw data using GraphPad Prism 9 software.

[2] = cited from earlier work
[3] = biological target: T2, XOR (Bos taurus, UniProt P80457); test: XOR kinetics with phenazine methosulfate / cytochrome c reduction (550 nm); assay type: biochemical, bovine; details: for Types of inhibition / Ki: XOR; for Types of inhibition: PMS
T2 construct: Bovine milk was obtained from the animal farm of the Nippon Veterinary and Life Science University; from tissue; host or cells: bovine milk
T2 sequence (P80457 whole entry): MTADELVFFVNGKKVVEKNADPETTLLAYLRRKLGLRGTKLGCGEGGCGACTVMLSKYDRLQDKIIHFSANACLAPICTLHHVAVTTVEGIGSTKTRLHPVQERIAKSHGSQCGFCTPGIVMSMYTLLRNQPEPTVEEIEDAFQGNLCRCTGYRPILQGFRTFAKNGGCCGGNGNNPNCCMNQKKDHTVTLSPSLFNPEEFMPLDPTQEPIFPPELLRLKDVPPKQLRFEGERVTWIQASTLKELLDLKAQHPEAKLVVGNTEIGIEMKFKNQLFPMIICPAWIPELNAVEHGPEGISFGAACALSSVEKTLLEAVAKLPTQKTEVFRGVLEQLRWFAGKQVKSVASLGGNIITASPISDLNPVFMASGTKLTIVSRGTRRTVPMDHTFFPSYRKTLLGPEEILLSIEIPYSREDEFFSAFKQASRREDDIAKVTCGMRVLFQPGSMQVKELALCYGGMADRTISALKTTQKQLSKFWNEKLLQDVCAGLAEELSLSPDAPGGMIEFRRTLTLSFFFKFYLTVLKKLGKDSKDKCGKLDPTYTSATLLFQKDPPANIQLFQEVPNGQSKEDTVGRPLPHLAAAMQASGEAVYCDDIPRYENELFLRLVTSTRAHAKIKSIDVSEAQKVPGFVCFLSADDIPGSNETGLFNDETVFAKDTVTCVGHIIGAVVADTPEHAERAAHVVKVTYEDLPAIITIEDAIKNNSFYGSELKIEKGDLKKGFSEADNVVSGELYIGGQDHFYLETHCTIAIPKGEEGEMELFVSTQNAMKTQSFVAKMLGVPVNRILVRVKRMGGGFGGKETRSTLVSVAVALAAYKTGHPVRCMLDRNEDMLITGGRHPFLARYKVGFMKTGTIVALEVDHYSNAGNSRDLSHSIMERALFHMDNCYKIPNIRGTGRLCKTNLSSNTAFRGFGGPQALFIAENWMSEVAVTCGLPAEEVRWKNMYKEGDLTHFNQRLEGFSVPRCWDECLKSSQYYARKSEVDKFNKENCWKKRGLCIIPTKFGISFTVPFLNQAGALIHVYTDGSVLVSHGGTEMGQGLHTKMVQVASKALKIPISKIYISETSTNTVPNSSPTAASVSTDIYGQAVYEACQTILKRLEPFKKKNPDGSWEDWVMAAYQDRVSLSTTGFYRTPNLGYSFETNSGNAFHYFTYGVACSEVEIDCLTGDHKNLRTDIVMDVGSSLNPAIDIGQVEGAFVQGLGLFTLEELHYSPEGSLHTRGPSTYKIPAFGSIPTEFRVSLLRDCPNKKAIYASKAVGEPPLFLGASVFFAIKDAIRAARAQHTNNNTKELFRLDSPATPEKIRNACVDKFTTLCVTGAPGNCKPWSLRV
Method: Therefore, phenazine methosulfate was used to induce direct, rapid reoxidation of the molybdenum center ([22], [23]).
as §1, with “used.” for “used. The activity was measured by following 295 nm and 340 nm on a UV-1800 or UV1900i spectrophotometer.”
A295 indicates the concentration of uric acid yielded by XOR. […] A295 indicates the concentration of uric acid yielded by XOR. Figure S2. The XOR inhibition mode of oxypurinol.A–G, Lineweaver-Burk plots were generated to visualize data and estimated the inhibition patterns. Data are representative of least two independent experiments. […] Figure S3. […] B, mode of inhibition of oxypurinol on the inosine degradation reaction of PNP. […] 0, 250, 375, 500, 750 and 1000 μM of oxypurinol were used. […] The rate of NAD^+ conversion to NADH was measured at A340 nm.

[4] = biological target: XO (Bos taurus, UniProt P80457); test: oxidation of hypoxanthine to xanthine and uric acid by XO, HPLC time course; assay type: biochemical, bovine; set-up: Bovine milk was obtained from the animal farm of the Nippon Veterinary and Life Science University; from tissue; host or cells: bovine milk
Sequence of XO (P80457 whole entry): as above
Method: The rate of NAD^+ conversion to NADH was measured at A340 nm.
as §1
Purine concentrations were measured using a Shimadzu HPLC system consisting of the CBM-20A controller, LC-20AD pump, SIL-20AC autosampler (set at 4 °C), CTO-20A column oven (set at 40 °C), and SPD-M20A diode array detector. Peak analysis was performed using LC solution software. A SUPELCOSIL LC-18-T column (25 cm × 4.6 mm id 5 μm particle size) was used with the SUPELCOSIL LC-18-T Supelguard guard column separation of purines, using a flow rate was 0.8 ml/min and 10 or 20 μl samples. The mobile phase used was A: 0.1 M KPB and 4 mM tetrabutylammonium hydrogen sulfate (pH 5.5), B: 70% buffer A and 30% methanol (v/v). Gradient conditions were 0 min (0% B), 2 min (0% B), 4 min (30% B), 12 min (60% B), 15 min (100% B), 19 min (100% B), 20 min (0% B), and 30 min (0% B). Detection wavelengths were 254 nm, 268 nm, and 295 nm. The data were analyzed using LabSolutions Ver. 5.97 SP1. All purines were identified by retention time and quantified using an external standard.

[5] = xanthine 2 μM, inhibitor 2 μM, XO
[6] = xanthine 2 μM, inhibitor 10 μM, XO
[7] = xanthine 5 μM, inhibitor 2 μM, XO
[8] = xanthine 5 μM, inhibitor 10 μM, XO
[9] = xanthine 10 μM, inhibitor 2 μM, XO
[10] = xanthine 50 μM, inhibitor 2 μM, XO
[11] = xanthine 50 μM, inhibitor 10 μM, XO
[12] = xanthine 50 μM, inhibitor 50 μM, XO
[13] = as substrate of XOR, electron acceptor PMS, mean ± S.E.

T1 sequence (P80457 whole entry): as above

O=c1[nH]c(=O)c2c[nH]nc2[nH]1 [Oxypurinol]
mode of inhibition ([1]; 2 μM xanthine, 0.1 M KPB pH 7.4): strictly competitive
uric acid production in presence of inhibitor ([1]; 2 μM xanthine, 0.1 M KPB pH 7.4, 0 to 400 μM oxypurinol): uric acid production was evident even with 400 μM oxypurinol
50% inhibition time of uric acid production [1, 5]: 9.0 min
stop time of uric acid production [1, 5]: 58.3 min
50% inhibition time of uric acid production [1, 6]: 14.9 min
stop time of uric acid production [1, 6]: 89.0 min
50% inhibition time of uric acid production ([1]; xanthine 2 μM, inhibitor 50 μM, XO): 49.5 min
ratio of 50% inhibition time, oxypurinol (min)/allopurinol (min) ([1]; xanthine 5 μM, inhibitor 2 μM): 10.8
ratio of stop time, oxypurinol (min)/allopurinol (min) ([1]; xanthine 5 μM, inhibitor 2 μM): 25.9
50% inhibition time of uric acid production [1, 7]: 10.8 min
stop time of uric acid production [1, 7]: 77.7 min
50% inhibition time of uric acid production [1, 8]: 20.1 min
stop time of uric acid production [1, 8]: 119.4 min
50% inhibition time of uric acid production ([1]; xanthine 5 μM, inhibitor 50 μM, XO): 38.3 min
ratio of 50% inhibition time, oxypurinol (min)/allopurinol (min) ([1]; xanthine 10 μM, inhibitor 2 μM): 10.9
ratio of stop time, oxypurinol (min)/allopurinol (min) ([1]; xanthine 10 μM, inhibitor 2 μM): 14.7
50% inhibition time of uric acid production [1, 9]: 15.3 min
stop time of uric acid production [1, 9]: 101.4 min
50% inhibition time of uric acid production ([1]; xanthine 10 μM, inhibitor 10 μM, XO): 20.8 min
50% inhibition time of uric acid production ([1]; xanthine 10 μM, inhibitor 50 μM, XO): 19.7 min
ratio of 50% inhibition time, oxypurinol (min)/allopurinol (min) ([1]; xanthine 50 μM, inhibitor 2 μM): 8.6
50% inhibition time of uric acid production [1, 10]: 32.7 min
ratio of 50% inhibition time, oxypurinol (min)/allopurinol (min) ([1]; xanthine 50 μM, inhibitor 10 μM): 10.8
50% inhibition time of uric acid production [1, 11]: 13.0 min
ratio of 50% inhibition time, oxypurinol (min)/allopurinol (min) ([1]; xanthine 50 μM, inhibitor 50 μM): 34.0
50% inhibition time of uric acid production [1, 12]: 6.8 min
oxypurinol concentrations necessary to achieve target serum uric acid levels ([2]; ref Stamp et al. 5, 16): > 100 µmol/L
Types of inhibition ([3]; substrate hypoxanthine): Competitive
Ki ([3]; substrate hypoxanthine, electron acceptor PMS, mean ± S.E.): 1290 ± 140 nM
Types of inhibition ([3]; substrate xanthine): Competitive
Ki ([3]; substrate xanthine, electron acceptor PMS, mean ± S.E.): 1650 ± 240 nM
accumulation of xanthine from hypoxanthine ([4]; up to 500 μM inhibitor, XO and XDH): accumulation of xanthine was still significant even at 500 μM oxypurinol

Oc1ncnc2[nH]ncc12 [Allopurinol]
effect on uric acid production ([1]; 10 μM or 50 μM inhibitor, 50 μM xanthine, XO): stops uric acid production immediately
50% inhibition time of uric acid production [1, 7]: 1.0 min
stop time of uric acid production [1, 7]: 3.0 min
50% inhibition time of uric acid production [1, 9]: 1.4 min
stop time of uric acid production [1, 9]: 6.9 min
50% inhibition time of uric acid production [1, 10]: 3.8 min
stop time of uric acid production [1, 10]: 14.9 min
50% inhibition time of uric acid production [1, 11]: 1.2 min
stop time of uric acid production [1, 11]: 4.5 min
50% inhibition time of uric acid production [1, 12]: 0.2 min
stop time of uric acid production [1, 12]: 0.7 min
serum oxypurinol concentrations ([2]; patients receiving 300 mg allopurinol daily for more than 2 weeks): greater than 100 μM
Km [3, 13]: 3.59 ± 0.45 µM
kcat [3, 13]: 26.17 ± 1.96 s⁻¹
time to inhibit conversion of hypoxanthine to xanthine ([4]; 10 μM inhibitor, 2.5 μM hypoxanthine, XO, pH 7.4, 25 °C): about 5 min
inhibition of conversion of hypoxanthine to xanthine ([4]; 50 μM inhibitor, 2.5 μM hypoxanthine, XO): inhibition was immediate
